Experimental data from patent US20160002174A1, “CXCR4 Antagonists for the Treatment of Medical Disorders” (Emory University, priority 2005, published 2016).
Where two headings read alike, the source gives them in different places. Bridge positions count the residues as written; N and C are the ends. Square brackets hold non-standard residues; d marks the D form. Peptide text beside a SMILES is read from it. 2Nal = N[C@@H](Cc1ccc2ccccc2c1)C(=O)O; Cit = NC(=O)NCCC[C@H](N)C(=O)O

Experiments:
CXCR4 = CXCR4 (Homo sapiens, UniProt P61073); assay: Competition assays: test compounds binding to CXCR4 compared to SDF-1 (Table 2)
Chain of CXCR4 (P61073 whole entry): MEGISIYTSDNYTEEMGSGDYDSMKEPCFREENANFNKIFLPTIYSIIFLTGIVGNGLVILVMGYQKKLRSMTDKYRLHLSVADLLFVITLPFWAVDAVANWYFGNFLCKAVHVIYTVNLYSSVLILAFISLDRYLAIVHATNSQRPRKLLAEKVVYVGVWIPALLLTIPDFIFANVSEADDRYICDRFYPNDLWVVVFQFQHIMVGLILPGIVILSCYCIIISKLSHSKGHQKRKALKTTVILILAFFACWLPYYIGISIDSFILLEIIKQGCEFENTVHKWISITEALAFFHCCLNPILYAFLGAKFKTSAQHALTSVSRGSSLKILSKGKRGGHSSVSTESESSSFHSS

[1] = Half life of the compounds in mice; format: in vivo; settings: for half-life: mouse, in vivo, read-out: t½ (min) in mice
Procedure: A pharmacokinetic study of a novel anti-HIF-1α small molecule was performed. A stably integrated hypoxia-reporter system of glioma cells transfected with the hypoxia-reporting plasmid (described above) was utilized. A natural product-like small molecule library of 10,000 compounds was screened and the “best hit” was identified. HPLC methodology was developed for quantitatively detecting KCN-1 in plasma and other biological samples. For the pharmacokinetic study, KCN-1 (100 mg/kg) was dissolved in DMSO and administered intravenously to mice. Plasma samples were collected at given time Points (0.25, 0.5, 1, 2, 4 and 8 h) and KCN-1 levels were quantified by HPLC. The HPLC system consisted of a Varian Prostar gradient pump, a Prostar autosampler and a Prostar photo diode array detector. The column was a Luna 5μ C18 column (4.6 mm×250 mm, Phenomenex). The retention time of KCN1 and the internal standard were 8.7 and 17.7 min, respectively (FIG. 13). The in vivo stability of WZZL811S and WZ40 were measured after systemic administration of compounds over two hours (FIG. 17).
The half life of the compounds in mice where determined are also shown.

[2] = tested on: CXCR4/SDF-1 mediated invasion of MDA-MB-231; assay: Matrigel invasion assay, CXCR4/SDF-1-mediated invasion; format: cell-based, human; settings: MDA-MB-231, 2 nM
Procedure: FIG. 10 is a graph and representative blot of matrigel invasion and Akt phosphorylation in cells. A: Inhibition of CXCR4/SDF-1 mediated invasion of MDA-MB-231 in vitro by WZZL811S. CXCR4/SDF-1 mediated invasion of MDA-MB-231 was blocked either by 2 nM of TN14003 or WZZL811S. B: Incubating MDA-MB-231 cells with 100 ng/ml of SDF-1 for 30 min stimulated phosphorylation of Akt that blocked by WZZL811S in a dose-dependent manner
Lowering CXCR4 mRNA levels by siRNAs inhibited CXCR4/SDF-1-mediated invasion as measured by a matrigel invasion assay. The CXCR4 ligand, SDF-1 (400 ng/ml) was added to the lower chamber to attract CXCR4-positive breast cancer cells to migrate through the matrigel. The invasion of MDA-MB-231 cells transfected with siRNA1 decreased to 39±4% of the control cells, 51±8% with siRNA2, and only 16±6% with both siRNA1+2 (FIG. 3A).
WZZL811S was tested in a matrigel invasion assay to determine whether it can inhibit CXCR4/SDF-1-mediated invasion.

phosphorylation of Akt = assay: SDF-1-stimulated phosphorylation of Akt (western blot); format: cell-based, human
Text: FIG. 2 is an image of a western blot showing phosphorylation of Akt.
FIG. 10 is a graph and representative blot of matrigel invasion and Akt phosphorylation in cells.
(§1) CXCR4/SDF-1 interaction activates PI3K/Akt and Ras/Raf/MEK/Erk pathways in a Gαi protein (PTX-sensitive)-dependent manner.

Erk1/2 phosphorylation = assay: SDF-1-stimulated Erk1/2 phosphorylation; format: cell-based, human; settings: data not shown
Text: as §1

CXCR4 protein levels = CXCR4 protein levels in treated cells; format: cell-based, human
Text: as §1

metastatic 686LN cells = assay: Head & Neck cancer metastasis model, 686LN cells injected through the tail vein, FDG-PET; format: in vivo, mice; settings: 20 mg/mouse/twice weekly, thirty days
Procedure: The metastatic 686LN cells were injected intravenously through the tail vein to generate experimental animal models for Head & Neck cancer metastasis, modulated via CXCR4. […] These 3-D projection images show lung metastases well (bone mets and liver mets were apparent in axial section images of mice in control groups, data not shown).

[3] = tested on: human umbilical vein endothelial cells (HUVECs); assay: Endothelial capillary tube formation assay; format: cell-based; settings: 100 nM, SDF-1 100 ng/ml, 18 hours
Procedure: The anti-angiogenic effect of test compounds was measured by analyzing endothelial cell growth and tube formation. The angiogenic effect of SDF-1 (100 ng/ml) on capillary formation by human umbilical vein endothelial cells (HUVECs) was examined in vitro using Matrigel-coated 24-well plates precoated with Matrigel and incubated for 18 hours. The angiogenic effect of SDF-1 was inhibited by either 100 nM TN14003 (peptide-based CXCR4 antagonist) or WZZL811S treatment (FIG. 14a, graph FIG. 14b).

HIV = settings: MT-4 cells; read-out: concentration required for 50% protection of HIV-induced cytopathogenicity; cited from earlier work
MT-4 cells = settings: cited from earlier work
SHIV = SHIV infection, p27 antigen capture; format: cell-based; settings: 0.1, 1, 10 or 100 nM drug prior to infection; 2 to 5 days
Procedure: The effect of the test compounds on HIV infection in model cells was analyzed by p27 antigen capture using SHIV infected cells. Cells were incubated with 0, 0.1, 1, 10 or 100 nM drug prior to infection with SHIV. Viral titer was measured after infection by analyzing levels of p27 antigen. […] The inhibition was measurable at 2 days, and continued to 5 day incubations.

[4] = competition with SDF-1 for binding to CXCR4, read-out: IC50 (nM) vs SDF-1

O=C(Nc1ccccc1)c1cc(CNc2ccccc2)cc(CNc2ccccc2)c1 [MSX-167]
IC50 (CXCR4; [4]): > 100 nM

Fc1cccc(NCc2ccc(CNc3cccc(F)c3)cc2)c1 [MSX-184]
IC50 (CXCR4; [4]): > 100 nM

N=C(N)NCc1ccc(CNC(=N)N)cc1 [WZ5S]
melting point: 278 to 281 °C (dec.)

Clc1cccc(NCc2ccc(CNc3ncccn3)cc2)n1 [MSX-221]
IC50 (CXCR4; [4]): 1 nM

O=[N+]([O-])c1ccc(NCc2ccc(CNc3ccc([N+](=O)[O-])cc3)cc2)cc1 [MSX-178]
IC50 (CXCR4): > 1000 nM

c1ccc(OCc2ccc(COc3ccccn3)cc2)nc1 [MSX-213]
IC50 (CXCR4; [4]): > 1000 nM

c1ccc(NCCc2ccc(CCNc3ccccc3)cc2)cc1 [MSX-170]
IC50 (CXCR4; [4]): > 100 nM

c1cc(CNC2=NCCN2)ccc1CNC1=NCCN1 [MSX-133]
IC50 (CXCR4; [4]): > 1000 nM

[O-][n+]1cccnc1NCc1ccc(CNc2nccc[n+]2[O-])cc1 [MSX-189]
IC50 (CXCR4; [4]): > 1000 nM

COc1cccc(NC(=O)c2ccc(C(=O)Nc3cccc(OC)c3)cc2)c1 [MSX-137]
IC50 (CXCR4; [4]): > 1000 nM

c1ccc(NCc2cc(CNc3ccccc3)cc(CNc3ccccc3)c2)cc1 [MSX-166]
IC50 (CXCR4; [4]): > 1000 nM

c1ccc(NCc2ccc(CNc3ncccn3)cc2)nc1 [MSX-198]
IC50 (CXCR4; [4]): < 100 nM

Fc1ccc(NCc2ccc(CNc3ccc(F)cc3)cc2)cc1 [MSX-142]
IC50 (CXCR4; [4]): > 1000 nM

Fc1ccc(NCc2ccc(CNc3ncccn3)cc2)nc1 [MSX-197]
IC50 (CXCR4; [4]): 1 nM | half-life [1]: 16.5 min

c1cncc(CNCc2ccc(CNCc3cccnc3)cc2)c1 [MSX-160]
IC50 (CXCR4; [4]): > 1000 nM

TN14003
blocking of SDF-1-induced matrigel invasion [2]: blocked | concentration blocking Akt activation (phosphorylation of Akt; 100 ng/ml SDF-1 for 30 minutes): sub-nano molar | blocking of SDF-1-stimulated Akt phosphorylation (dose-dependent) (phosphorylation of Akt; MDA-MB-231 cells, 100 ng/ml SDF-1 for 30 min): blocked | concentration attenuating Erk1/2 phosphorylation (Erk1/2 phosphorylation): sub-nano molar | effect on CXCR4 protein levels (CXCR4 protein levels): did not affect | metastasis of 686LN cells to organs (metastatic 686LN cells): failed to metastasize to any organs | inhibition of the angiogenic effect of SDF-1 (tube formation) [3]: inhibited | EC50 (HIV): 0.0006 µM | concentration leading to 50% toxicity (MT-4 cells): 410 µM

CN(C)Cc1ccc(CN(C)C)cc1 [MSX-141]
IC50 (CXCR4; [4]): > 1000 nM

FCc1ccc(CNc2ncccn2)cc1 [MSX-207]
IC50 (CXCR4; [4]): 1 nM | half-life [1]: 11 min

c1ccc(CNCc2ccc(CNCc3ccccn3)cc2)nc1 [MSX-161s]
IC50 (CXCR4; [4]): > 1000 nM

O=C(Nc1ccccc1)c1cc(C(=O)Nc2ccccc2)cc(C(=O)Nc2ccccc2)c1 [WZ20]
melting point: 318 to 320 °C

c1cc(CNCc2ccc(CNCc3ccncc3)cc2)ccn1 [MSX-159s]
IC50 (CXCR4; [4]): > 1000 nM

CN(C)CCNCc1ccc(CNCCN(C)C)cc1 [MSX-156s]
IC50 (CXCR4; [4]): > 1000 nM

O=[N+]([O-])c1ccccc1NCc1ccc(CO)cc1 [MSX-202]
IC50 (CXCR4; [4]): 1 nM | half-life [1]: < 5 min

O=[N+]([O-])c1cccc(NCc2ccc(CNc3cccc([N+](=O)[O-])c3)cc2)c1 [MSX-203]
IC50 (CXCR4): 1 nM | t½ (min) in mice [1]: infinite

c1ccc(NCc2c3ccccc3c(CNc3ccccc3)c3ccccc23)cc1 [MSX-174]
IC50 (CXCR4; [4]): > 100 nM

COc1ccc(NCc2ccc(CNc3ccc(OC)cc3)cc2)cc1 [MSX-125]
IC50 (CXCR4; [4]): > 10 nM

CN(Cc1ccc(CN(C)c2ccccc2)cc1)c1ccccc1 [MSX-164]
IC50 (CXCR4; [4]): > 100 nM

c1ccc(NC[C@H]2CC[C@@H](CNc3ccccc3)CC2)cc1 [MSX-171]
IC50 (CXCR4; [4]): > 1000 nM

Fc1cccc(NCc2ccc(CNc3ncccn3)cc2)n1 [MSX-222]
half-life [1]: 15 min

c1cnc(NCc2ccc(CNc3ncccn3)cc2)nc1 [WZ40]
inhibition of SHIV infection (p27 antigen) (SHIV): inhibited SHIV infection at all concentrations tested

c1ccc(NCCNCc2ccc(CNCCNc3ccccc3)cc2)cc1 [WZ8]
melting point: 42 to 43 °C

COc1nc(NCc2ccc(CNc3ncc(F)c(OC)n3)cc2)ncc1F [MSX-201]
IC50 (CXCR4; [4]): 1 nM

Oc1cc(CN2CCOCC2)c(O)cc1CN1CCOCC1 [MSX-127]
IC50 (CXCR4; [4]): > 1000 nM

Fc1nccc(NCc2ccc(CNc3ccnc(F)n3)cc2)n1 [MSX-193]
IC50 (CXCR4; [4]): 1 nM | half-life [1]: 30 min

OCc1ccc(CNc2ccc(F)cn2)cc1 [MSX-186]
IC50 (CXCR4; [4]): > 1000 nM

OCc1ccc(CNc2ncccn2)cc1 [WZ41]
inhibition of SHIV infection (p27 antigen) (SHIV): inhibited SHIV infection at all concentrations tested

Fc1ccc(NCc2ccc(CNc3ccc(F)cn3)cc2)nc1 [MSX-185]
IC50 (CXCR4; [4]): < 100 nM

Fc1cnc(NCc2ccc(CNc3ncc(F)c(Cl)n3)cc2)nc1Cl [MSX-192]
IC50 (CXCR4; [4]): 1 nM

Cc1c(C)c(CNc2ccccc2)c(C)c(C)c1CNc1ccccc1 [MSX-172]
half-life [1]: < 5 min

Oc1ccc(NCc2ccc(CNc3ccc(O)cc3)cc2)cc1 [MSX-179]
IC50 (CXCR4; [4]): > 1000 nM

N#Cc1ccc(NCc2ccc(CNc3ccc(C#N)cc3)cc2)cc1 [MSX-177]
IC50 (CXCR4; [4]): > 1000 nM

c1ccc(NCc2ccc(CNc3ccccc3)cc2)cc1 [WZ13]
melting point: 126 to 127 °C

Clc1nc(Cl)nc(NCc2ccc(CNc3nc(Cl)nc(Cl)n3)cc2)n1 [MSX-190]
half-life [1]: < 5 min

Cc1cc(CN)c(C)cc1CN [MSX-126]
IC50 (CXCR4; [4]): > 1000 nM

c1ccc(NCc2ccccc2CNc2ccccc2)cc1 [MSX-176]
IC50 (CXCR4; [4]): > 100 nM

FC(F)(F)c1cccc(NCc2ccc(CNc3cccc(C(F)(F)F)c3)cc2)c1 [MSX-138]
IC50 (CXCR4; [4]): > 1000 nM

c1ccc(-c2nc(-c3ccc(-c4nc(-c5ccccc5)c(-c5ccccc5)[nH]4)cc3)[nH]c2-c2ccccc2)cc1 [MSX-130]
IC50 (CXCR4; [4]): > 1000 nM

N=C(N)NCCC[C@H](NC(=O)[C@@H]1CSSC[C@H](NC(=O)[C@H](Cc2ccc3ccccc3c2)NC(=O)[C@H](CCCNC(=N)N)NC(=O)[C@@H](N)CCCNC(=N)N)C(=O)N[C@@H](Cc2ccc(O)cc2)C(=O)N[C@@H](CCCNC(N)=O)C(=O)N[C@@H](CCCCN)C(=O)N[C@H](CCCCN)C(=O)N2CCC[C@H]2C(=O)N[C@@H](Cc2ccc(O)cc2)C(=O)N[C@@H](CCCNC(=N)N)C(=O)N[C@@H](CCCNC(N)=O)C(=O)N1)C(N)=O [TN-14003, reference compound] (H-RR[2Nal]CY[Cit]K[dK]PYR[Cit]CR-NH2; disulfide 4-13 (inferred); N-terminus assumed)
IC50 (CXCR4; [4]): < 1 nM

c1ccc(NCCNCc2ccc(CNCCNc3ccccc3)cc2)cc1 [MSX-158]
IC50 (CXCR4; [4]): > 1000 nM
